How the values were obtained:
[1] = test system: spontaneously hypertensive rats (SHR); assay: Antihypertensive activity in spontaneously hypertensive rats (SHR); format: in vivo, male SHR (Okamoto and Aoki strain) rats; conditions: 30 mg/kg
Description: The animals used were male SHR [Okamoto and Aoki strain; cf. Jap. Circul. […] Proc. Soc. […] The other end of the cannula was exposed through the skin on the back of the neck and fixed. After 1 to 4 days, the aortic cannula was connected to a pressure transducer (produced by Nihon Koden Co., Ltd., Japan; Model MP-4T), and conscious blood pressure was measured by direct method. On the day of the experiment, the blood pressure was measured for one hour prior to dosing. The test compound, suspended in 0.5% aqueous tragacanth solution, was administered orally at a volume of 3.0 ml/kg and the blood pressure was measured continuously for 5 hours.
The changes of blood pressure are expressed by the mean pressure calculated from the values of systolic and diastolic pressure.

[2] = test system: methacholine-induced ST elevation; assay: Preventive effect on methacholine-induced ST elevation (experimental model of variant angina); format: in vivo, Male SD strain rats; conditions: i.v.; for ST elevation, administn. of M (8 μg) after administn. of test compd. (at peak time): ± S.E.
Description: (2) Preventive effect on methacholine-induced ST elevation (effect in experimental model of variant angina)
The test was carried out according to the method of Sakai et al. [cf. J. Pharmacol. Methods, 5, 325-336 (1981)].
Male SD strain rats, weighing about 500 g, were anesthetized with 60 mg/kg (i.p.) of sodium pentobarbital. Lead II electrocardiogram was recorded. The ST elevation was produced with 8.0 μg of metacholine given into the coronary […] through the cannula inserted from the right carotid artery. The test compound, dissolved in 5% ethanol-physiological saline solution, was administered intravenously. The amplitude of ST elevation was measured by means of the computer 0.5, 5 and 10 minutes after the administration of the test compound and afterward at intervals of 10-minute. The effect of the test compound was evaluated by comparing the amplitude of ST elevation after administration of the test compound with that before the administration. Each group of 5 rats was used for each dose of the test compound.
The abbreviation M in the table represents metacholine.

[3] = test system: vasopressin-induced ST depression; assay: Preventive effect on vasopressin-induced ST depression (experimental model of angina pectoris); format: in vivo, Male Donryu strain rats; parameters: key to Preventive effect on ST depression, 7 hours / Preventive effect on ST depression, 1 hour / Preventive effect on ST depression, 5 hours / Preventive effect on ST depression, 3 hours: +: Significantly different from vehicle control (P < 0.05); -: No significant difference; conditions: for Preventive effect on ST depression, 1 hour: 1 hour following administration; for Preventive effect on ST depression, 7 hours: 7 hours following administration
Description: (1) Preventive effect on vasopressin-induced ST depression (effect in experimental model of angina pectoris)
The test was carried out according to the method of Hatano et al. [cf. Pharmacometrics, 19, 311-317 (1980)].
Male Donryu strain rats, weighing 130-180 g, were anesthetized with 60 mg/kg (i.p.) of sodium pentobarbital. Lead II electrocardiogram was recorded. The ST depression produced with 0.2 IU/kg (i.v.) of vasopressin was recorded at intervals of a given period for 5 minutes after the administration of vasopressin. The test compound, suspended in 0.5% aqueous tragacanth solution, was administered orally 1, 3, 5 and 7 hours before the administration of vasopressin. The amplitude of ST depression was measured by means of the computer, and the data were analyzed statistically by two-dimensional analysis between the control group and the treated group to evaluate the effect of the test compound. Each group of 5 rats was used for each dose of the test compound.

[4] = in vivo; conditions: mouse, mortality for 7 days
Description: STD-ddY strain mice were used in groups of 10 animals each.

**Q.** Which “Peak time (time of maximum hypotensive effect)” value ([1]; p.o.) does the source give for `O=C(CCCN1CCN(c2ccc(F)cc2)CC1)NC1c2ccccc2CSc2ccccc21` (stereo not shown) [Example 1(3), 11-[4-[4-(4-fluorophenyl)-1-piperazinyl]butyrylamino]-6,11-dihydrodibenzo[b,e]thiepin] here?
**A.** The value was 5 h.

**Q.** What about the “maximum hypotensive effect (decrease compared with the initial blood pressure)” value ([1]; oral) of the same compound?
**A.** The value was 12-14%.

**Q.** What about the “time of maximum hypotensive effect” value ([1]; oral) of the same compound?
**A.** Its value is 4 to 5 h.

**Q.** What about the “peak time (preventive effect on ST elevation)” value ([2]; 0.1 mg/kg) of the same compound?
**A.** Its value is 0.5 min.

**Q.** What about the “ST elevation, administn. of M (8 μg) after administn. of test compd. (at peak time)” value (“ST elevation, administn. of M (8 μg)” for short) ([2]; 0.1 mg/kg, * P < 0.05) of the same compound?
**A.** Its value is “+0.14 ± 0.02 ΔmV”.

**Q.** And the “peak time (preventive effect on ST elevation)” value ([2]; 0.3 mg/kg)?
**A.** The value was 5 min.

**Q.** What about the “ST elevation, administn. of M (8 μg)” value ([2]; 0.3 mg/kg, * P < 0.05, ** P < 0.01) of the same compound?
**A.** Its value is “+0.09 ± 0.02 ΔmV”.

**Q.** And the “peak time (preventive effect on ST elevation)” value ([2]; 1.0 mg/kg)?
**A.** The value was 0.5 min.

**Q.** And the “ST elevation, administn. of M (8 μg)” value ([2]; 1.0 mg/kg, ** P < 0.01)?
**A.** Its value is “+0.09 ± 0.01 ΔmV”.

**Q.** What about the “preventive effect on the ST elevation (in words)” value ([2]; compared with diltiazem hydrochloride) of the same compound?
**A.** Its value is “preventive effect on the ST elevation comparable to that of diltiazem hydrochloride”.

**Q.** And the “Preventive effect on ST depression, 1 hour” value ([3]; 3 mg/kg p.o.)?
**A.** Its value is “+”.

**Q.** What about the “Preventive effect on ST depression, 3 hours” value ([3]; 3 mg/kg p.o., 3 hours following administration) of the same compound?
**A.** Its value is “-”.

**Q.** What about the “Preventive effect on ST depression, 1 hour” value ([3]; 10 mg/kg p.o.) of the same compound?
**A.** The value was “+”.

**Q.** And the “Preventive effect on ST depression, 5 hours” value ([3]; 10 mg/kg p.o., 5 hours following administration)?
**A.** The value was “+”.

**Q.** What about the “Preventive effect on ST depression, 7 hours” value ([3]; 10 mg/kg p.o.) of the same compound?
**A.** The value was “-”.

**Q.** What about the “Preventive effect on ST depression, 7 hours” value ([3]; 30 mg/kg p.o.) of the same compound?
**A.** The value was “+”.

**Q.** And the “preventive effect on the ST depression (in words)” value ([3]; p.o., compared with diltiazem hydrochloride)?
**A.** Its value is “more prolonged preventive effect on the ST depression than diltiazem hydrochloride”.

**Q.** And the LD50 at 168 h ([4]; ip, single intraperitoneal administration)?
**A.** Its LD50 at 168 h is > 1000 mg/kg.

**Q.** And the LD50 at 168 h ([4]; single oral administration)?
**A.** The LD50 at 168 h was > 4000 mg/kg.

Reference: patent publication US4749703A, “Calcium antagonist piperazine derivatives, and compositions therefor” (Dainippon Pharmaceutical Co., Ltd., priority 1984, dated 1988)
